Data as given in US8198447B2, “Fused tricyclic compound having aldose reductase inhibitory activity” (National University Corporation University of Toyama, priority 2007, dated 2012).

These compounds were tested against Aldose reductase II (Homo sapiens, UniProt P15121) (assay: Aldose reductase inhibitory activity (NADPH decrease at 340 nm, DL-glyceraldehyde substrate)). Settings: pH 6.2, 100 mM DL-glyceraldehyde, 1.5 mM NADPH.
Format: biochemical
Description: A reaction solution containing a 200 mM of a phosphate buffer solution (pH 6.2), 1.5 mM of reduced nicotinamide adenine dinucleotide phosphate (NADPH), 1 mg/ml of bovine serum albumin, a test compound, and 100 mM of DL-glyceraldehyde as a substrate was prepared. Aldose reductase II (5.1×10^−1 unit/ml) was added to the solution to initiate the reaction, and the amount of NADPH reduced by the reaction was measured at an absorption wavelength of 340 nm using a spectrophotometer.

IC50 [µM]	Compound
51.5	O=C(O)Cn1c2c(c3cc(F)ccc31)CCN(Cc1ccccc1)C2=O [Compound 22, (2-Benzyl-6-fluoro-1-oxo-1,2,3,4-tetrahydro-β-carbolin-9-yl)acetic acid]
5.6	CC(C)(C)OC(=O)Cn1c2c(c3cc(F)ccc31)CCN(Cc1ccccc1)C2=S [Compound 23, (2-benzyl-6-fluoro-1-thioxo-1,2,3,4-tetrahydro-β-carbolin-9-yl)acetic acid tert-butyl ester]
48.6	O=C(O)Cn1c2c(c3cc(F)ccc31)CCN(Cc1ccccc1F)C2=O [Compound 25, [2-(2-Fluorophenylmethyl)-6-fluoro-1-oxo-1,2,3,4-tetrahydro-β-carbolin-9-yl]acetic acid]
4.2	O=C(O)Cn1c2c(c3ccccc31)CCN(Cc1ccccc1)C2=S [Compound 26, (2-Benzyl-1-thioxo-1,2,3,4-tetrahydro-β-carbolin-9-yl)acetic acid]
5	O=C(O)Cn1c2c(c3cc(Cl)ccc31)CCN(Cc1ccccc1)C2=S [Compound 27, (2-Benzyl-6-chloro-1-thioxo-1,2,3,4-tetrahydro-β-carbolin-9-yl)acetic acid]
5.7	COc1ccc2c(c1)c1c(n2CC(=O)O)C(=S)N(Cc2ccccc2)CC1 [Compound 29, (2-Benzyl-6-methoxy-1-thioxo-1,2,3,4-tetrahydro-β-carbolin-9-yl)acetic acid]
12.4	O=C(O)Cn1c2c(c3cc(Cl)ccc31)CCOC2=O [Compound 30, (6-Chloro-1-oxo-3,4-dihydro-1H-pyrano[3,4-b]indol-9-yl)acetic acid]
11.1	O=C(O)Cn1c2c(c3cc(Cl)ccc31)CCOC2=S [Compound 31, (6-chloro-1-thioxo-3,4-dihydro-1H-pyrano[3,4-b]indol-9-yl) acetic acid]
6.2	O=C(O)Cn1c2c(c3cc(Br)ccc31)CCN(Cc1ccccc1)C2=S [Compound 32, (2-Benzyl-6-bromo-1-thioxo-1,2,3,4-tetrahydro-β-carbolin-9-yl)acetic acid]
36.3	O=C(O)Cn1c2c(c3ccccc31)CCN(c1ccccc1)C2=S [Compound 33, (2-Phenyl-1-thioxo-1,2,3,4-tetrahydro-β-carbolin-9-yl)acetic acid]
7.2	O=C(O)Cn1c2c(c3ccccc31)CCN(CC1CCCCC1)C2=S [Compound 34, (2-Cyclohexylmethyl-1-thioxo-1,2,3,4-tetrahydro-β-carbolin-9-yl)acetic acid]
16.3	O=C(O)Cn1c2c(c3ccccc31)CCN(Cc1ccco1)C2=S [Compound 35, [2-(2-Furanylmethyl)-1-thioxo-1,2,3,4-tetrahydro-β-carbolin-9-yl]acetic acid]
7.6	O=C(O)Cn1c2c(c3ccccc31)CCN(Cc1cccs1)C2=S [Compound 36, [2-(2-Thienylmethyl)-1-thioxo-1,2,3,4-tetrahydro-β-carbolin-9-yl]acetic acid]
27.4	O=C(O)Cn1c2c(c3ccc(Cl)cc31)CCN(Cc1ccc(Br)cc1F)C2=S [Compound 37]
3.7	O=C(O)Cn1c2c(c3ccc(Cl)cc31)CCN(Cc1ccccc1)C2=S [Compound 38, (2-Benzyl-7-chloro-1-thioxo-1,2,3,4-tetrahydro-β-carbolin-9-yl)acetic acid]
21.1	O=C(O)Cn1c2c(c3c(F)cc(F)cc31)CCN(Cc1ccc(Br)cc1F)C2=S [Compound 39]
4.8	O=C(O)Cn1c2c(c3cc(O)ccc31)CCN(Cc1ccccc1)C2=S [Compound 40, (2-Benzyl-6-hydroxy-1-thioxo-1,2,3,4-tetrahydro-β-carbolin-9-yl)acetic acid]
2.6	O=C(O)COc1ccc2c(c1)c1c(n2CC(=O)O)C(=S)N(Cc2ccccc2)CC1 [Compound 42, (2-Benzyl-6-carboxymethoxy-1-thioxo-1,2,3,4-tetrahydro-β-carbolin-9-yl)acetic acid]
21.7	O=C(O)Cn1c2c(c3ccccc31)CCN(C(=O)c1ccc(F)cc1)C2=O [Compound 46, [2-(4-fluorobenzoyl)-1-oxo-1,2,3,4-tetrahydro-β-carbolin-9-yl)acetic acid]

IC50 [µM]	Compound
34.6	O=C(O)Cn1c2c(c3ccccc31)CCN(C(=O)c1ccc(Br)cc1)C2=O [Compound 47, [2-(4-Bromobenzoyl)-1-oxo-1,2,3,4-tetrahydro-β-carbolin-9-yl]acetic acid]
35.8	COc1ccc(C(=O)N2CCc3c(n(CC(=O)O)c4ccccc34)C2=O)cc1 [Compound 48]
45.3	O=C(O)Cn1c2c(c3ccccc31)CCN(C(=O)c1ccc(F)cc1F)C2=O [Compound 49, [2-(2,4-Difluorobenzoyl)-1-oxo-1,2,3,4-tetrahydro-β-carbolin-9-yl]acetic acid]
34.5	O=C(O)Cn1c2c(c3ccccc31)CCN(C(=O)c1cc(F)cc(F)c1)C2=O [Compound 50, [2-(3.5-Difluorobenzoyl)-1-oxo-1,2,3,4-tetrahydro-β-carbolin-9-yl]acetic acid]
68.3	O=C(O)Cn1c2c(c3ccccc31)CCN(C(=O)c1ccc(Br)cc1F)C2=O [Compound 51, [2-(2-Fluoro-4-bromobenzoyl)-1-oxo-1,2,3,4-tetrahydro-β-carbolin-9-yl]acetic acid]
55.3	O=C(O)Cn1c2c(c3ccccc31)CCN(C(=O)c1cc(F)c(F)c(F)c1)C2=O [Compound 52, [2-(3,4,5-Trifluorobenzoyl)-1-oxo-1,2,3,4-tetrahydro-β-carbolin-9-yl]acetic acid]
48	O=C(O)Cn1c2c(c3ccccc31)CCN(C(=O)c1cc(O)c(O)c(O)c1)C2=O [Compound 54, [2-(3,4,5-Trihydroxybenzoyl)-1-oxo-1,2,3,4-tetrahydro-β-carbolin-9-yl]acetic acid]
53.1	O=C(O)Cn1c2c(c3ccccc31)CCN(C(=O)c1ccccc1)C2=O [Compound 55, (2-Benzoyl-1-oxo-1,2,3,4-tetrahydro-β-carbolin-9-yl)acetic acid]
1.1	O=C(O)Cn1c2c(c3cc(Cl)ccc31)CCSC2=O [Compound 56, (6-chloro-1-oxo-3,4-dihydro-1H-2-thia-9-azafluoren-9-yl)acetic acid]
2.8	O=C(O)Cn1c2c(c3ccccc31)CCSC2=O [Compound 57, (1-Oxo-3,4-dihydro-1H-2-thia-9-azafluoren-9-yl)acetic acid]
1.6	Cc1ccc2c(c1)c1c(n2CC(=O)O)C(=O)SCC1 [Compound 58, (6-Methyl-1-oxo-3,4-dihydro-1H-2-thia-9-azafluoren-9-yl)acetic acid]
1.4	CC(C)(C)c1ccc2c(c1)c1c(n2CC(=O)O)C(=O)SCC1 [Compound 59, (6-tert-Butyl-1-oxo-3,4-dihydro-1H-2-thia-9-azafluoren-9-yl)acetic acid]
3.6	O=C(O)Cn1c2c(c3cc(Cc4ccccc4)ccc31)CCSC2=O [Compound 60, (6-Benzyl-1-oxo-3,4-dihydro-1H-2-thia-9-azafluoren-9-yl)acetic acid]
2.6	COc1ccc2c(c1)c1c(n2CC(=O)O)C(=O)SCC1 [Compound 61, (6-Methoxy-1-oxo-3,4-dihydro-1H-2-thia-9-azafluoren-9-yl)acetic acid]
5.6	O=C(O)Cn1c2c(c3cc(C4CCCCC4)ccc31)CCSC2=O [Compound 62, (6-Cyclohexyl-1-oxo-3,4-dihydro-1H-2-thia-9-azafluoren-9-yl)acetic acid]
5.9	Cc1cc(C)c2c3c(n(CC(=O)O)c2c1)C(=O)SCC3 [Compound 63, (5,7-Dimethyl-1-oxo-3,4-dihydro-1H-2-thia-9-azafluoren-9-yl)acetic acid]
3.6	O=C(O)Cn1c2c(c3c(Cl)cccc31)CCSC2=O [Compound 64, (5-Chloro-1-oxo-3,4-dihydro-1H-2-thia-9-azafluoren-9-yl)acetic acid]
3.4	O=C(O)Cn1c2c(c3cc4c(cc31)CCCC4)CCSC2=O [Compound 65, (1-Oxo-3,4,6,7,8,9-hexahydro-1H-2-thia-11-azabenzo[b]fluoren-11-yl)acetic acid]
1	O=C(O)Cn1c2c(c3c4c(ccc31)CCCC4)CCSC2=O [Compound 66, (8-Oxo-1,3,4,8,10,11-hexahydro-2H-9-thia-7-azabenzo[c]fluoren-7-yl)acetic acid]

Compound	IC50 [µM]
COc1cc(C(=O)N2CCc3c(n(CC(=O)O)c4ccccc34)C2=O)cc(OC)c1OC [Compound 53, [2-(3,4,5-Trimetoxybenzoyl)-1-oxo-1,2,3,4-tetrahydro-β-carbolin-9-yl]acetic acid]	46.8

What follows are compounds tested on mouse leukemia adriamycin sensitive strain P388/S (assay: Cancer cell sensitivity test (MTT)). Settings: Mus musculus; P388/S cells, test compound 25 μM, 44 hours, MTT-formazan at 540 nm; read-out: INHIBITORY RATE (%).
Format: cell-based
Description: Cells of mouse leukemia adriamycin sensitive strain P388/S were cultured in an RPMI1640 culture medium (5% fetal bovine serum, […] 2-mercaptoethanol, 30 μM kanamycin) under conditions of 37° C. and 5% CO2, and used for a compound sensitivity test.
The cell suspension (1.35×10^4 cells/ml) was added to a 96 well plate, 100 μl per well.
After culturing under the conditions of 37° C. and 5% CO2 for 16 hours, a solution of the test compound dissolved in DMSO to a concentration of 25 μM was added, followed by continuation of culture for a further 44 hours, while only DMSO was added to a control to continue the culture.
After culturing, […] (PBS, pH 7.4), was added in an amount of 25 μl/well, followed by incubation for four hours to produce MTT-formazan.
After removing supernatant by aspiration, 200 μl of DMSO was added and the absorbance of MTT-formazan at 540 nm was measured.

Compound	inhibition at 25 µM [%]
CCOC(=O)Cn1c2c(c3cc(F)ccc31)CCN(Cc1ccccc1)C2=O [Compound 22a, (2-Benzyl-6-fluoro-1-oxo-1,2,3,4-tetrahydro-β-carbolin-9-yl)acetic acid ethyl ester]	34.5
O=C(O)Cn1c2c(c3ccccc31)CCN(Cc1ccccc1)C2=S [Compound 26, (2-Benzyl-1-thioxo-1,2,3,4-tetrahydro-β-carbolin-9-yl)acetic acid]	88.1
O=C(O)Cn1c2c(c3cc(Cl)ccc31)CCOC2=O [Compound 30, (6-Chloro-1-oxo-3,4-dihydro-1H-pyrano[3,4-b]indol-9-yl)acetic acid]	31.1
O=C(O)Cn1c2c(c3ccccc31)CCN(C(=O)c1cc(F)c(F)c(F)c1)C2=O [Compound 52, [2-(3,4,5-Trifluorobenzoyl)-1-oxo-1,2,3,4-tetrahydro-β-carbolin-9-yl]acetic acid]	34.7

Same assay, conditions: P388/S cells, test compound 25 μM, 44 hours, MTT-formazan at 540 nm

Compound	INHIBITORY RATE (%)
CC(C)(C)OC(=O)Cn1c2c(c3cc(F)ccc31)CCN(Cc1ccccc1)C2=S [Compound 23, (2-benzyl-6-fluoro-1-thioxo-1,2,3,4-tetrahydro-β-carbolin-9-yl)acetic acid tert-butyl ester]	92.9
